# Measured values as given in paper PMC3005334 (Cell, 2010).
# What was measured:
# [1] = test system: 103 protein kinases; assay: Affinity purification LC-MS profiling of the panel of yeast protein kinases; type: binding, Saccharomyces cerevisiae; conditions: of 103 kinases analyzed
# [2] = molecular target: T1, Ssk22 (Saccharomyces cerevisiae, UniProt P25390); assay: Ssk22 protein levels purified from erg4Δ cells with exogenous ergosterol; type: cell-based; conditions: erg4Δ mutant strain, exogenous ergosterol added to the medium
# T1 sequence (P25390 1-1331): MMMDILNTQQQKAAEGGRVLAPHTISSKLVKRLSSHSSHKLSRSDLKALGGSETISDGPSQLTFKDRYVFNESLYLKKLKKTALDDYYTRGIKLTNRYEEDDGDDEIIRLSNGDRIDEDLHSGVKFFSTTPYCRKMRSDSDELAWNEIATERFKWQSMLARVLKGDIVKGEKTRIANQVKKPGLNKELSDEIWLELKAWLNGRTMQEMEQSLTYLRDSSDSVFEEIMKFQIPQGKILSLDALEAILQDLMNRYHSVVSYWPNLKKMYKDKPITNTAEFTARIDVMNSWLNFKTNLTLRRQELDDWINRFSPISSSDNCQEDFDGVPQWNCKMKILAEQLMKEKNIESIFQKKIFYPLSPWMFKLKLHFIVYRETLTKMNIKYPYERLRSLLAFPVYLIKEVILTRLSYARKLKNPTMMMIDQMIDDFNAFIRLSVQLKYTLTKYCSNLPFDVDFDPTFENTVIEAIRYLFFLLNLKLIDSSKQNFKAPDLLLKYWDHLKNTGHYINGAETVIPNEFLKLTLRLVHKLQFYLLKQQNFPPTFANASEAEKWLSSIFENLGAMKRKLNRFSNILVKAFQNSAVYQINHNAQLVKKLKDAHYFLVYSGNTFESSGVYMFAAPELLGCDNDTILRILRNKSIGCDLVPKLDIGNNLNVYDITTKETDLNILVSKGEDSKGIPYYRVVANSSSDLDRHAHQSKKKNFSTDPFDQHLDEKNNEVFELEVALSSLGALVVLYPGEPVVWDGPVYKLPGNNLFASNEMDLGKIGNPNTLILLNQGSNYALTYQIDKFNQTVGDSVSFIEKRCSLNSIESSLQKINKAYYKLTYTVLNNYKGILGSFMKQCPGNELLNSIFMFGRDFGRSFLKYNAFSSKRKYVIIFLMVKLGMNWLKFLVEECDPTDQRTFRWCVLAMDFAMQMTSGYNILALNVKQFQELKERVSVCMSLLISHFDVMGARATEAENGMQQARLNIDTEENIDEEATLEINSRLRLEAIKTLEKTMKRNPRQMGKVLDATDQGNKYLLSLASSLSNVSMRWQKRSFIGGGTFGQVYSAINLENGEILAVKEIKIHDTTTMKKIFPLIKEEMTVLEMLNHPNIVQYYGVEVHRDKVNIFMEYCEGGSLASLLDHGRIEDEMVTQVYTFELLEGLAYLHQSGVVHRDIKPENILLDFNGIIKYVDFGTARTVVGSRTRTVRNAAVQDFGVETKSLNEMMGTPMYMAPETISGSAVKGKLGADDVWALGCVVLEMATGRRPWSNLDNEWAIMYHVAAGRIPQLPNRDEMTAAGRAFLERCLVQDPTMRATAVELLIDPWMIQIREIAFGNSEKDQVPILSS
# [3] = test system: Ypk1, Hal5, and Rck2; assay: In vitro small metabolite-protein binding assay; design: species or system Saccharomyces cerevisiae; conditions: fixed amount of protein; indicates specific binding
# [4] = molecular target: Erg4 (Saccharomyces cerevisiae, UniProt P25340); type: binding; conditions: in vivo bound, LC-MS; natural synthesizing enzyme
# Chain of Erg4 (P25340 whole entry): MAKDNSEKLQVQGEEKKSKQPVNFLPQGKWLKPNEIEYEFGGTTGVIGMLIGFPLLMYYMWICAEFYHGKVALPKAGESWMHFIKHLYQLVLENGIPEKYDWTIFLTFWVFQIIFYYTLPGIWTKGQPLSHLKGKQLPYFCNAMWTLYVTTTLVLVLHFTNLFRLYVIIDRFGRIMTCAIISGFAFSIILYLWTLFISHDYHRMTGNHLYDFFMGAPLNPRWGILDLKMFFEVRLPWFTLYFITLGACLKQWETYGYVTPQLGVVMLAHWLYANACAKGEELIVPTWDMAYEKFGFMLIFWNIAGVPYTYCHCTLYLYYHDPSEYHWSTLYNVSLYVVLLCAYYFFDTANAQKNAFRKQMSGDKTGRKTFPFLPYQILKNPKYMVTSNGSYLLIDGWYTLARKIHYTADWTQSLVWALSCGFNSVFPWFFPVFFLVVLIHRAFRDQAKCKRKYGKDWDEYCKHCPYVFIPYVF
smiles,measurement,setting,value
CC(C)[C@@H](C)/C=C/[C@@H](C)[C@H]1CC[C@H]2C3=CC=C4C[C@@H](O)CC[C@]4(C)[C@H]3CC[C@]12C [ergosterol],number of protein kinases associated with the metabolite,[1],15
same,Ssk22 protein levels,[2],restored Ssk22 levels
same,shape of binding curve over increasing free ergosterol,[3],saturable curve
same,binding to Erg4,[4],bound
